Assay results published in US11162083B2, “Peptide based inhibitors of Raf kinase protein dimerization and kinase activity” (UNIVERSITY OF SOUTH CAROLINA, priority 2018, dated 2021).

Key:
[1] = biological target: B-Raf (Homo sapiens, UniProt P15056); type: binding
Source text: An isothermal titration calorimeter composed of two identical cells surrounded by an adiabatic jacket was used to perform ITC measurements. The thermopile/thermocouple circuits were used to detect temperature differences between a reference cell (filled with buffer or water) and a sample cell containing the macromolecule. During an experiment, ligand is titrated into the sample cell in precisely known aliquots, causing heat to be either taken up or evolved (depending on the nature of the reaction). Measurements consist of the time-dependent input of power required to maintain equal temperatures between the sample and reference cells. In an exothermic reaction, the temperature in the sample cell increases upon addition of ligand. This causes the feedback power to the sample cell to be decreased (remember: a reference power is applied to the reference cell) in order to maintain an equal temperature between the two cells. In an endothermic reaction, the opposite occurs; the feedback circuit increases the power in order to maintain a constant temperature (isothermic/isothermal operation). […] The pattern of these heat effects as a function of the molar ratio [ligand]/[macromolecule] can then be analyzed to give the thermodynamic parameters of the interaction under study.

[2] = test system: NRASQ61K-mutant SBC12 melanoma cells; test: Western blotting of MEK/ERK signaling in melanoma cells; conditions: peptide added to SBC12 cells; 1 μM PLX4032 or DMSO; Western blot
Procedure: Following recovery at 37° C. for 30 minutes, the cells were treated with 1 μM PLX4032 for 1 hour or DMSO as a vehicle control. Subsequently, the cells were harvested, lysed using RIPA buffer and analyzed by Western blotting using the indicated antibodies. […] Four hours prior to harvest, the cells were treated with 1 μM vemurafenib (PLX4032), or the same volume of DMSO as vehicle control. RIPA buffer lysates were subjected to Western blotting using the indicated antibodies. Detection of HSP90 serves as a representative loading control.
Following recovery at 37° C. for 30 minutes, cells were treated with 1 μM PLX4032 for 1 hour or DMSO as a vehicle control. Subsequently, the cells were harvested, lysed using RIPA buffer, and analyzed by Western blotting using the indicated antibodies.

[3] = biological target: dimer interface of B-Raf (Homo sapiens, UniProt P15056); test: Dissociation constant (Kd) determination from intrinsic Trp fluorescence (ITF) measurements; type: binding; conditions: for Kd, binding affinity to the dimer forming interface of B-Raf (FIG. 1): no unit printed in this block
Chain of dimer interface of B-Raf (P15056 whole entry): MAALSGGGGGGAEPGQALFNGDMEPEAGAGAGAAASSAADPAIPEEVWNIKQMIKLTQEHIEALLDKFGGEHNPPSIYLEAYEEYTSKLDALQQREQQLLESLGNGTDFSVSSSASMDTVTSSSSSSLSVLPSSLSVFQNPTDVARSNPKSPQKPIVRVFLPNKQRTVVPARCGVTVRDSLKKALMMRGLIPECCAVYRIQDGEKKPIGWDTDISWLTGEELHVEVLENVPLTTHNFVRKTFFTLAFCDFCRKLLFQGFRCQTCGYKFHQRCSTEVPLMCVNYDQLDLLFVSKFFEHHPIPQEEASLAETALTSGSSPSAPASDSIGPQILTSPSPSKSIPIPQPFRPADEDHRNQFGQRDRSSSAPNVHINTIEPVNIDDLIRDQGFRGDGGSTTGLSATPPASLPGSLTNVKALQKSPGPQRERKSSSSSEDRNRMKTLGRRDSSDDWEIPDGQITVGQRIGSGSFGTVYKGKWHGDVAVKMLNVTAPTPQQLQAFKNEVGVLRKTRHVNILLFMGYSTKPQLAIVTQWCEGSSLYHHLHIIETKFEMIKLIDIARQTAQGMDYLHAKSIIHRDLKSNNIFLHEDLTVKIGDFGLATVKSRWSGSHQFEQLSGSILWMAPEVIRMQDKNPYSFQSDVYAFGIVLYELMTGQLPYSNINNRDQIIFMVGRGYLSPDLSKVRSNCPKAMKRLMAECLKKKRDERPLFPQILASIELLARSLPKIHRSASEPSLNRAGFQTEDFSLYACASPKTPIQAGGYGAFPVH
Procedure: The dissociation constant is an indicator of binding strength between two molecules. For the reaction: P+L↔PL Kd is expressed by Equation 1: Kd=[P][L]/[PL] Eq. 1 where [P] is the concentration of free Protein, [L] is the concentration of free Ligand, and [PL] is the Ligand-bound-Protein.
Fluorescence intensity was measured with a Hitachi F-2500 fluorescence spectrophotometer. A 1.6 mL of protein solution (0.5 μM) was placed in a cuvette and equilibrated at 15° C. for 1 hour. After equilibration, small increments (2-15 μL) of the ligand solution were injected in the cuvette. The experiments were performed in 20 mM Hepes buffer (pH 7.5), 10 mM MgCl2, 30 mM NaCl. […] The slits were set at 10 and 10 nm in the excitation and emission respectively. To determine dilution effect of B-Raf (due to ligand addition) and any fluorescence effect by unbound ligand, a blank sample containing Trp with the same fluorescence signal, was titrated with ligand additions as described above. The sample absorbance was kept below 0.1 to minimize the inner filter effect.
Dissociation constant of B-Raf/Ligand was calculated by fitting data in Eq. 2.
Data were analyzed using Origin 7, using the one site bind function for nonlinear fit.

Chain of B-Raf (P15056 whole entry): as above

CC[C@H](C)[C@H](NC(=O)[C@H](CC(N)=O)NC(=O)[C@@H](NC(=O)[C@H](Cc1c[nH]cn1)NC(=O)[C@H](CCCNC(=N)N)NC(=O)[C@H](C)NC(=O)[C@H](CCCCN)NC(=O)[C@H](CCCNC(=N)N)NC(=O)[C@H](CC(C)C)NC(=O)[C@@H](NC(=O)CN)C(C)C)C(C)C)C(=O)N[C@@H](CC(C)C)C(=O)N[C@@H](CC(C)C)C(=O)N[C@@H](Cc1ccccc1)C(=O)N[C@@H](CCSC)C(=O)NCC(=O)N[C@@H](Cc1ccc(O)cc1)C(=O)N[C@@H](CO)C(=O)N[C@H](C(=O)O)[C@@H](C)O [SEQ ID NO: 8]
ΔH of binding (ITC) [1]: -8.32 kcal/mol
ΔS of binding (ITC) [1]: −28.4 J/mol·K

CC[C@H](C)[C@H](NC(=O)[C@H](CC(N)=O)NC(=O)[C@@H](NC(=O)[C@H](Cc1c[nH]cn1)NC(=O)[C@H](CCCNC(=N)N)NC(=O)[C@@H](NC(=O)[C@H](CCCCN)NC(=O)[C@H](CCCNC(=N)N)NC(=O)[C@H](CC(C)C)NC(=O)[C@@H](N)C(C)C)[C@@H](C)O)C(C)C)C(=O)N[C@@H](CC(C)C)C(=O)N[C@@H](CC(C)C)C(=O)N[C@@H](Cc1ccccc1)C(=O)N[C@@H](CCSC)C(=O)NCC(=O)O [SEQ ID NO: 17]
downstream signaling of MEK and ERK (pMEK, pERK) [2]: reduce downstream signaling of MEK and ERK

CC[C@H](C)[C@H](NC(=O)[C@H](CC(N)=O)NC(=O)[C@@H](NC(=O)[C@H](Cc1cnc[nH]1)NC(=O)[C@H](CCCNC(=N)N)NC(=O)[C@@H](NC(=O)[C@H](CCCCN)NC(=O)[C@H](CC(C)C)NC(=O)[C@H](CC(C)C)NC(=O)[C@@H](NC(=O)CN)C(C)C)[C@@H](C)O)C(C)C)C(=O)N[C@@H](CC(C)C)C(=O)N[C@@H](CC(C)C)C(=O)N[C@@H](Cc1ccccc1)C(=O)N[C@@H](CCSC)C(=O)NCC(=O)N[C@@H](Cc1ccc(O)cc1)C(=O)N[C@@H](CO)C(=O)N[C@H](C(=O)O)[C@@H](C)O [SEQ ID NO: 6]
Kd [3]: ~0.54 µM

GVLRKTRFVNILLFMGYST [SEQ ID NO: 9]
Kd, binding affinity to the dimer forming interface of B-Raf (FIG. 1) [3]: no measurable binding

GVLRKTRHVNILLDMGYST [SEQ ID NO: 14]
Kd, binding affinity to the dimer forming interface of B-Raf (FIG. 1) [3]: no measurable binding

CC[C@H](C)[C@H](NC(=O)[C@H](CC(N)=O)NC(=O)[C@@H](NC(=O)[C@H](Cc1cnc[nH]1)NC(=O)[C@H](CCCNC(=N)N)NC(=O)[C@@H](NC(=O)[C@H](CCCCN)NC(=O)[C@H](CCCNC(=N)N)NC(=O)[C@H](CC(C)C)NC(=O)[C@@H](NC(=O)CN)C(C)C)[C@@H](C)O)C(C)C)C(=O)N[C@@H](CC(C)C)C(=O)N[C@@H](CC(C)C)C(=O)N[C@@H](Cc1ccccc1)C(=O)N[C@@H](CCSC)C(=O)NCC(=O)N[C@@H](Cc1ccc(O)cc1)C(=O)N[C@@H](CO)C(=O)N[C@H](C(=O)O)[C@@H](C)O [SEQ ID NO: 1]
Kd [3]: ~3.84 µM

GVLRKTHHVNILGFWGYST [SEQ ID NO: 2]
Kd, binding affinity to the dimer forming interface of B-Raf (FIG. 1) [3]: no measurable binding
